From patent publication US20200276154A1, “COMPOSITION FOR PROMOTING ADIPOCYTE DIFFERENTIATION OR ADIPONECTIN, COMPRISING TRIMETHOXY PHENYL COMPOUND” (AMOREPACIFIC CORPORATION, priority 2017, published 2020)

Assays:
Type in all cases: cell-based, human
[1] = test system: hSCFs; test: Quantitative analysis of adipocyte differentiation by Oil Red O (ORO) staining; settings: 14 days differentiation, compared with KA 400 μM, CA 60 μM, GC 30 μM
Procedure: Human subcutaneous fat cells (hereinafter, hSCFs) and a subcutaneous preadipocyte differentiation medium were purchased from ZenBio Inc. (NC, USA). The cells were cultured in a humidified 5% CO2 incubator for 7 days.
To induce differentiation, the hSCFs were cultured further for 14 days in a Dulbecco's modified Eagle's medium (DMEM; Lonza, MD, USA) supplemented with 10% fetal bovine serum (FBS, PAA, Pasching, Austria), 10 μg/mL insulin (Sigma-Aldrich, MO, USA), 0.5 mM 3-isobutyl-1-methylxanthine (IBMX; Sigma-Aldrich, St. Louis, Mo., USA), 1 μM dexamethasone (DEX, Sigma-Aldrich, St. Louis, Mo., USA) and 1 μM troglitazone (Sigma-Aldrich, St. Louis, Mo., USA) while replacing the medium every other day.
The hSCFs cultured in Example 1 were differentiated for a total of 14 days by treating with a composition containing PAC-2 at various concentrations (μM) or with KA (400 μM), CA (60 μM) or GC (30 μM) as positive control groups. Then, after washing twice with cold PBS (phosphate-buffered saline), the cells were fixed in 3.7% formaldehyde (Sigma-Aldrich, St. Louis, Mo., USA) for 1 hour. The fixed hSCFs were washed with 60% propylene glycol (Sigma-Aldrich, St. Louis, Mo., USA) in PBS and were treated with Oil Red 0 (0.3% Oil Red 0 in 60% propylene glycol; Sigma-Aldrich, St. Louis, Mo., USA) for 30 minutes. The cells were washed with 85% propylene glycol thrice and then rinsed with tap water. […]

[2] = test system: secreted adiponectin from hSCFs; test: Quantitative analysis of adiponectin production by ELISA; settings: culture medium, compared with positive control groups KA 400 μM, CA 60 μM, GC 30 μM
Procedure: The hSCFs cultured in Example 1 were treated with KA (400 μM), CA (60 μM) or GC (30 μM) as positive control groups or a composition containing PAC-2 at various concentrations. The culture medium was collected and centrifuged at 13,000 rpm for 15 minutes to remove any debris. The secreted adiponectin was measured using an adiponectin ELISA kit (Enzo Life Sciences, Farmingdale, N.Y., USA) according to the manufacturer's instructions.

[3] = test system: adiponectin (Adipoq) mRNA in hSCFs; test: mRNA expression of adiponectin by real-time quantitative PCR (RT-qPCR); settings: compared with positive control groups KA 400 μM, CA 60 μM, GC 30 μM
Procedure: Total RNA was extracted by treating the hSCFs cultured in Example 1 with a composition containing PAC-2 at various concentrations (μM) or KA (400 μM), CA (60 μM) and GC (30 μM) as positive control groups using a TRIzol reagent (Life Technologies, Carlsbad, Calif., USA) according to the manufacturer's instructions. 1 μg of total RNA was utilized to synthesize complementary DNAs (cDNAs) using the RevertAid first strand cDNA synthesis kit (Thermo Scientific, Pittsburgh, Pa., USA). About 1 μg of the cDNA sample and each TaqMan® probe (Life Technologies, Carlsbad, Calif., USA) were diluted in a reaction mixture of the Quantitect probe PCR kit (QIAGEN, Valencia, Calif., USA) and PCR was conducted using the 7500 fast real-time PCR system (Life Technologies, Carlsbad, Calif., USA). The TaqMan® probe was glyceraldehyde-3-phosphate dehydrogenase (GAPDH; Part #4352339E). All data were acquired from three independent experiments and are presented as fold changes relative to the GAPDH control group.

COc1cc(/C=C/C(=O)OCc2cc(=O)c(O)co2)cc(OC)c1OC [PAC-2, 3-(3,4,5-trimethoxyphenyl)-acrylic acid 5-hydroxy-4-oxo-4H-pyran-2-ylmethyl ester]
number of Oil Red O stained cells ([1]; 25 μM): remarkably increased number of stained cells
number of Oil Red O stained cells ([1]; 50 μM): remarkably increased number of stained cells
amount of the secreted adiponectin ([2]; 25 μM): ≥ 3 times
amount of the secreted adiponectin ([2]; 50 μM): ≥ 7 times
mRNA expression level of adiponectin ([3]; 25 μM): ≥ 3 times
mRNA expression level of adiponectin ([3]; 50 μM): ≥ 5 times
